Measurements reported in patent publication US8106225B2, “Methods of preparing substituted tetracyclines with transition metal-based chemistries” (Trustees of Tufts College, priority 1999, dated 2012).

Experiments:
Experiment in all cases: Antibacterial activity in vitro, MIC by broth dilution
Format in all cases: cell-based
[1] = tested on: E. coli D 31m4 pHCM1 Tc^r; conditions: E. coli D 31m4 pHCM1, tetracycline resistant, 18 hrs
Description: (§1) Various compounds made in accordance with the invention were evaluated for anti-bacterial activity in vitro as follows. The minimum inhibitory concentration, the lowest concentration of drug that inhibits bacterial growth at 18 hrs at their appropriate temperature, is determined by the broth dilution method using L-broth or Mueller-Hinton broth. The Mueller-Hinton broth was cation-adjusted accordingly and all bacteriological methods were performed as was described by Waitz, J. A., National Commission for Clinical Laboratory Standards Document M7-A2, vol. 10, no. 8, pp. 13-20, 2nd edition, Villanova, Pa. (1990). The organisms tested represent gram-positive and gram-negative bacterial species that are susceptible to tetracyclines or are resistant to tetracyclines due to the ability to efflux tetracyclines or which confer resistance by ribosomal protection mechanisms. The clinical strains used are either susceptible to tetracyclines or are resistant to them by either drug efflux or ribosomal protection.

E. coli D31m4 Tc^s = conditions: E. coli D31m4, tetracycline susceptible, 18 hrs
Description: as §1

[2] = tested on: E. hirae 9790 with pAM211 Tc^r; conditions: E. hirae 9790 with pAM211, tetracycline resistant, 18 hrs
Description: as §1

[3] = tested on: E. hirae 9790 with pMV158 Tc^r; conditions: E. hirae 9790 with pMV158, tetracycline resistant, 18 hrs
Description: as §1

S. aureus RN4250 Tc^r = conditions: S. aureus RN4250, tetracycline resistant, 18 hrs
Description: as §1

S. aureus RN450 Tc^s = conditions: S. aureus RN450, tetracycline susceptible, 18 hrs
Description: as §1

E. coli D1-209 Tc^r = tested on: E. coli D1-209 Tc^r; parameters: unit not given here; conditions: E. coli D1-209, tetracycline resistant, 18 hrs
Description: as §1

E. coli D1-299 Tc^r = tested on: E. coli D1-299 Tc^r; parameters: unit not given here; conditions: E. coli D1-299, tetracycline resistant, 18 hrs
Description: as §1

E. coli ML308-225 Tc^s = tested on: E. coli ML308-225 Tc^s; parameters: unit not given here; conditions: E. coli ML308-225, tetracycline susceptible, 18 hrs
Description: as §1

E. hirae ATCC9790 Tc^s = tested on: E. hirae ATCC9790 Tc^s; parameters: unit not given here; conditions: E. hirae ATCC9790, tetracycline susceptible, 18 hrs
Description: as §1

S. aureus MRSA5 Tc^r = tested on: S. aureus MRSA5 Tc^r; parameters: unit not given here; conditions: S. aureus MRSA5, tetracycline resistant, 18 hrs
Description: as §1

[4] = tested on: S. warnerii Tc^r ATCC12715; parameters: unit not given here; conditions: S. warnerii ATCC12715, tetracycline resistant, 18 hrs
Description: as §1

Row | SMILES | Antibacterial Activity (minimum inhibitory concentration) [1] | Antibacterial Activity (minimum inhibitory concentration) (E. coli D31m4 Tc^s) | Antibacterial Activity (minimum inhibitory concentration) [2] | Antibacterial Activity (minimum inhibitory concentration) [3] | Antibacterial Activity (minimum inhibitory concentration) (S. aureus RN4250 Tc^r) | Antibacterial Activity (minimum inhibitory concentration) (S. aureus RN450 Tc^s) | Antibacterial Activity (minimum inhibitory concentration) (E. coli D1-209 Tc^r) | Antibacterial Activity (minimum inhibitory concentration) (E. coli D1-299 Tc^r) | Antibacterial Activity (minimum inhibitory concentration) (E. coli ML308-225 Tc^s) | Antibacterial Activity (minimum inhibitory concentration) (E. hirae ATCC9790 Tc^s) | Antibacterial Activity (minimum inhibitory concentration) (S. aureus MRSA5 Tc^r) | Antibacterial Activity (minimum inhibitory concentration) [4]
1 | CN(C)[C@@H]1C(O)=C(C(N)=O)C(=O)C2(O)C(O)=C3C(=O)c4c(O)cccc4C(=Cc4cccc(C(=O)O)c4)C3C(O)C12 (stereo partly drawn) [J, [4S-(4a,12aα)]-13-(3′-carboxyphenyl)-4-(dimethylamino)-1,4,4a,5,5a,6,11,12a-octahydro-3,5,10,12,12a-pentahydroxy-6-methylene-1,11-dioxo-2-naphthacenecarboxamide] | >50 | >50 | >50 | >50 | >50 | 0.39 | >50 | >50 | >50 | 3.12 | >50 | >50
2 | C[C@H]1c2cccc(O)c2C(=O)C2=C(O)[C@]3(O)C(=O)C(C(N)=O)=C(O)[C@@H](N(C)C)[C@@H]3[C@@H](O)[C@@H]21 [Doxy, [4S-(4a,12aα)]-4-(dimethylamino)-1,4,4a,5,5a,6,11,12a-octahydro-3,5,10,12,12a-pentahydroxy-6-methyl-1,11-dioxo-2-naphthacenecarboxamide, reference compound] | 25 | 1.56 |  |  | 25 | <0.098 | 50 | 25 | 0.78 | 0.195 | 6.25 | 50
3 | CN(C)C1C(O)=C(C(N)=O)C(=O)C2(O)C(O)=C3C(=O)c4c(O)ccc(-c5ccc(Cl)cc5)c4CC3CC12 (centres unmarked) [G] | 0.78 | 0.78 | ≦0.098 | ≦0.098 | ≦0.098 | ≦0.098 | >50 | >50 | >50 | ≦0.098 | 0.195 | ≦0.098
4 | CCCCOC(=O)/C=C/c1cc(N(C)C)c2c(c1O)C(=O)C1=C(O)C3(O)C(=O)C(C(N)=O)=C(O)C(N(C)C)C3CC1C2 (stereo not drawn) [F, [4S-(4a,12aα)]-9-[3′-(E)-butylpropenoate]-4,7-Bis(dimethylamino)-1,4,4a,5,5a,6,11,12a-octahydro-3,10,12,12a-tetrahydroxy-1,11-dioxo-2-naphthacenecarboxamide] | 6.25 | 3.12 |  |  |  | 1.56 | >50 | >50 | >50 | 3.12 | 3.12 | 3.12
5 | CCCCOC(=O)/C=C/c1ccc2c(c1O)C(=O)C1=C(O)C3(O)C(=O)C(C(N)=O)=C(O)[C@@H](N(C)C)C3C(O)C1C2C (stereo partly drawn) [E, [4S-(4a,12aα)]-9-[3′-(E)-butylpropenoate]-4-(dimethylamino)-1,4,4a,5,5a,6,11,12a-octahydro-3,5,10,12,12a-pentahydroxy-6-methyl-1,11-dioxo-2-naphthacenecarboxamide] |  |  |  |  |  | 0.78 | >50 | >50 | 6.25 | 3.12 | 0.39 | 6.25
6 | CC1c2ccc(/C=C/C(=O)O)c(O)c2C(=O)C2=C(O)C3(O)C(=O)C(C(N)=O)=C(O)[C@@H](N(C)C)C3C(O)C21 (stereo partly drawn) [D, [4S-(4a,12aα)]-9-[3′-(E)-propenoic acid]-4-(dimethylamino)-1,4,4a,5,5a,6,11,12a-octahydro-3,5,10,12,12a-pentahydroxy-6-methyl-1,11-dioxo-2-naphthacenecarboxamide] | >50 | >50 | >50 | 12.5 | >50 | 3.12 | >50 | >50 | 25 | 3.12 | >50 | >50
7 | CCOc1ccc(C=C2c3cccc(O)c3C(=O)C3=C(O)C4(O)C(=O)C(C(N)=O)=C(O)C(N(C)C)C4C(O)C23)cc1 (stereo not drawn) [K, [4S-(4a,12aα)]-13-(4′-ethoxyphenyl)-4-(dimethylamino)-1,4,4a,5,5a,6,11,12a-octahydro-3,5,10,12,12a-pentahydroxy-6-methylene-1,11-dioxo-2-naphthacenecarboxamide] | >50 |  | 3.12 |  |  | 0.195 | >50 | >50 |  | 0.39 | 6.25 | 12.5
8 | Cc1ccc(C=C2c3cccc(O)c3C(=O)C3=C(O)C4(O)C(=O)C(C(N)=O)=C(O)C(N(C)C)C4C(O)C23)cc1 (stereo not drawn) [I, [4S-(4a,12aα)]-13-(4′-methylphenyl)-4-(dimethylamino)-1,4,4a,5,5a,6,11,12a-octahydro-3,5,10,12,12a-pentahydroxy-6-methylene-1,11-dioxo-2-naphthacenecarboxamide] | 25 |  |  | 3.12 |  | ≦0.098 | >50 | >50 | >50 | 0.39 | 6.25 | 12.5
9 | CN(C)C1C(O)=C(C(N)=O)C(=O)C2(O)C(O)=C3C(=O)c4c(O)c(-c5ccccc5)cc(-c5ccccc5)c4CC3CC12 (stereo not drawn) [H, [4S-(4a,12aα)]-7-phenyl-9-phenyl-4-(dimethylamino)-1,4,4a,5,5a,6,11,12a-octahydro-3,10,12,12a-tetrahydroxy-1,11-dioxo-2-naphthacenecarboxamide] |  | 1.56 |  | 0.39 | 0.78 | 1.56 | >50 | >50 | >50 | 0.78 | 0.78 | 0.78
